From patent US20210153502A1, “PLANT GROWTH AID AND PLANT GROWING METHOD” (priority 2018, published 2021)

How the values were obtained:
[1] = octanol/water, 25° C.; cited from earlier work
Hinohikari (rice) [2] = test: Evaluation of crop injury after treatment with nanoparticles (P) or thiazinyl, rice; assay type: in vivo; design: key: 0: Harmless (healthy); 1: minimally damaged; 2: slightly damaged; 3: moderately damaged; 4: significantly damaged; 5: complete leaf firing; conditions: seedling sheet Z-1, 100 μL spray, thiazinyl 100 ppm
Protocol: (§1) The results are shown in the rows of “cultivation in paddy field” of Table 3 (rice) and Table 4 (tomato).
(§2) Young seedlings were treated with the nanoparticles (P) or thiazinyl in the same manner as in the method described in <Evaluation of disease resistance>. Then, the degree of crop injury on the leaf surface was evaluated after a predetermined period of time (days (day) shown in Tables 3 and 4, from moving to the paddy field until evaluation). Specifically, crop injury was visually evaluated with the naked eye according to the following criteria.

PR1 protein [3] = test: Evaluation of disease resistance: PR1 protein content of sprayed leaf by western blotting, rice; assay type: in vivo; conditions: seedling sheet Z-1, band density relative to thiazinyl solution of same period
Protocol: as §1
(§3) A 1/5000-are pot was filled with 2.9 kg of paddy field soil (clay loam). Ten young seedlings having 2 to 3 leaves grown by the above method were planted in a depth of 2 cm and watered, and the seedlings were placed in water at a depth of 3 cm. The seedlings were left to stand at 25° C. for a predetermined period shown in Table 3 or Table 4 (days (day) from moving to paddy field until evaluation). Each leaf sprayed with the nanoparticle (P) dispersion (or thiazinyl solution) was cut off, immersed in ion exchange water in a container for one minute, and taken out from the container. The liquid in the container was replaced by fresh ion exchange water. The leaf was further subjected to an operation of immersing in the fresh ion exchange water in the container for one minute and taking out of the container three times, whereby the nanoparticles (P) (or thiazinyl) attached to the leaf surface were removed. Then, proteins were extracted from the above leaf using 8-min Plant Tissue Total Protein Extraction Kit (available from Cosmo Bio Co., Ltd.), and the PR1 protein content, which is a marker of disease resistance, in the extracted proteins was determined as follows. The total protein content was quantified with Micro BCATM protein assay kit (available from THERMO Fisher Scientific). […]
(§4) The test was performed five times for each seedling. The PR1 protein content was evaluated by western blotting (including electrophoresis, transferring, and color development) specifically described later. […]
(§5) After a PR1 protein band was detected in the transferring membrane after the operations (1) to (3), the density of the band was quantified with Image J (available from National Institutes of Health, USA). In Examples 11 to 14, the quantified density of the band in each of Examples 11 to 14 was divided by the density of the band in Comparative Example 3. […]

House Momotaro (tomato) [4] = test: Aerial part growing ratio after treatment with nanoparticles (P) or thiazinyl, tomato; assay type: in vivo; conditions: seedling sheet Z-1, relative to thiazinyl solution of same period
Protocol: as §1
(§6) Young seedlings were treated with the nanoparticles (P) or thiazinyl in the same manner as in the method described in the <Evaluation of disease resistance>, and the aerial part growing state was evaluated after a predetermined period (shown in Tables 3 and 4, days (day) from moving to the paddy field until evaluation). Specifically, the aerial part growing state was evaluated by measuring the length of each part. The aerial part length in each example treated with the nanoparticles (P) for a predetermined period was divided by the aerial part length in the comparative example treated with a thiazinyl solution for the same period. The calculated value was regarded as the aerial part growing ratio.

House Momotaro (tomato) [5] = test: Evaluation of crop injury after treatment with nanoparticles (P) or thiazinyl, tomato; assay type: in vivo; design: key: 0: Harmless (healthy); 1: minimally damaged; 2: slightly damaged; 3: moderately damaged; 4: significantly damaged; 5: complete leaf firing; conditions: seedling sheet Z-1, 100 μL spray, thiazinyl 100 ppm
Protocol: as §1, §2

PR1 protein [6] = test: Evaluation of disease resistance: PR1 protein content of sprayed leaf by western blotting, tomato; assay type: in vivo; conditions: seedling sheet Z-1, band density relative to thiazinyl solution of same period
Protocol: as §1, §3, §4, §5

Hinohikari (rice) [7] = test: Aerial part growing ratio after treatment with nanoparticles (P) or thiazinyl, rice; assay type: in vivo; conditions: seedling sheet Z-1, relative to thiazinyl solution of same period
Protocol: as §1, §6

[8] = 1 day from moving to paddy field
[9] = 3 days from moving to paddy field
[10] = 7 days from moving to paddy field

| SMILES | Log Pow [1] | other results |
| --- | --- | --- |
| C/C(=N/Nc1nc(C)cc(C)n1)c1ccccc1C [ferimzone] | 2.89 | – |
| N#CC(CCc1ccc(Cl)cc1)(Cn1cncn1)c1ccccc1 (centres unmarked) [fenbuconazole] | 3.23 | – |
| CCCSP(=O)(OCC)Oc1cnn(-c2ccc(Cl)cc2)c1 (centres unmarked) [pyraclofos] | 3.77 | – |
| N#Cc1ccccc1NC(=O)c1snc(Cl)c1Cl [isotianil] | 2.96 | – |
| O=C(NC(=O)c1c(F)cccc1F)Nc1cc(Cl)c(OC(F)(F)C(F)C(F)(F)F)cc1Cl (centres unmarked) [lufenuron] | 5.12 | – |
| O=C1CCc2cccc3c2N1CC3 [pyroquilone] | 1.42 | – |
| COc1nn(CSP(=S)(OC)OC)c(=O)s1 [methidathion] | 2.2 | – |
| Cc1c(F)c(F)c(COC(=O)[C@@H]2[C@H](/C=C(\Cl)C(F)(F)F)C2(C)C)c(F)c1F (racemic) [tefluthrin] | 6.5 | – |
| COC(=O)c1c(C(F)F)nc(C(F)(F)F)c(C2=NCCS2)c1CC(C)C [thiazopyr] | 3.89 | – |
| O=C(NC(=O)c1c(F)cccc1F)Nc1ccc(Cl)c(Oc2ncc(C(F)(F)F)cc2Cl)c1 [fluazuron] | 5.1 | – |
| O=[N+]([O-])c1ccc(NS(=O)(=O)c2ccc(Cl)c(C(F)(F)F)c2)c(Cl)c1 [flusulfamide] | 2.8 | – |
| COCC(=O)N(c1c(C)cccc1C)C(C)C(=O)OC (centres unmarked) [metalaxyl] | 1.75 | – |
| CC(C)Oc1cccc(NC(=O)c2ccccc2C(F)(F)F)c1 [flutolanil] | 3.17 | – |
| C=CCCCOC(=O)C(CC)N(Cc1ccco1)C(=O)n1ccnc1 (centres unmarked) [pefurazoate] | 3.0 | – |
| CN(C)C(=S)SSC(=S)N(C)C [thiuram] | 1.73 | – |
| CSC(=O)c1cccc2nnsc12 [acibenzolar-S-methyl] | 3.1 | – |

| SMILES | Log Pow [1] | other results |
| --- | --- | --- |
| CS/C(C)=N\OC(=O)N(C)SN(C)C(=O)O/N=C(\C)SC [thiodicarb] | 1.62 | – |
| O=C1OCc2c(Cl)c(Cl)c(Cl)c(Cl)c21 [fthalide] | 3.01 | – |
| Cc1ccc(NC(=O)c2snnc2C)cc1Cl [thiazinyl] | 3.68 | Crop injury (Hinohikari (rice) [2]; [8]): 3; Crop injury (Hinohikari (rice) [2]; [9]): 4; Crop injury (Hinohikari (rice) [2]; [10]): 4; PR1 protein mass ratio (PR1 protein [3]; 1 day): 1.0; PR1 protein mass ratio (PR1 protein [3]; 3 days): 1.0; PR1 protein mass ratio (PR1 protein [3]; 7 days): 1.0; Aerial part growth ratio (House Momotaro (tomato) [4]; 1 day): 1.0; Aerial part growth ratio (House Momotaro (tomato) [4]; 3 days): 1.0; Aerial part growth ratio (House Momotaro (tomato) [4]; 7 days): 1.0; Crop injury (House Momotaro (tomato) [5]; [8]): 2; Crop injury (House Momotaro (tomato) [5]; [9]): 3; Crop injury (House Momotaro (tomato) [5]; [10]): 3; PR1 protein mass ratio (PR1 protein [6]; 1 day): 1.0; PR1 protein mass ratio (PR1 protein [6]; 3 days): 1.0; PR1 protein mass ratio (PR1 protein [6]; 7 days): 1.0; Aerial part growth ratio (Hinohikari (rice) [7]; 1 day): 1.0; Aerial part growth ratio (Hinohikari (rice) [7]; 3 days): 1.0; Aerial part growth ratio (Hinohikari (rice) [7]; 7 days): 1.0 |
| COP(=S)(OC)Oc1ccc([N+](=O)[O-])c(C)c1 [fenitrothion] | 3.43 | – |
| CCOP(=O)(SC(C)CC)N1CCSC1=O (centres unmarked) [fosthiazate] | 1.68 | – |
| O=C(NC(=O)c1c(F)cccc1F)Nc1cc(Cl)c(OC(F)(F)C(F)F)c(Cl)c1 [hexaflumuron] | 4.68 | – |
| COC(=O)NC(=S)Nc1ccccc1NC(=S)NC(=O)OC [thiophanate-methyl] | 1.5 | – |
| Cc1nn(C)c(Cl)c1C(=O)Nc1cccc2c1C(C)OC2(C)C (centres unmarked) [furametpyr] | 2.36 | – |
| CCOP(=S)(OCC)Oc1cc(C)nc(C(C)C)n1 [diazinon] | 3.3 | – |
| CCCCC(C#N)(Cn1cncn1)c1ccc(Cl)cc1 (centres unmarked) [myclobutanil] | 2.9 | – |
| CCOc1ccc(NC(=O)OC(C)C)cc1OCC [diethofencarb] | 3.02 | – |
| O=C1C2CC=CCC2C(=O)N1SC(Cl)(Cl)Cl (centres unmarked) [captan] | 2.8 | – |
| CC(C)[C@H](Nc1ccc(C(F)(F)F)cc1Cl)C(=O)OC(C#N)c1cccc(Oc2ccccc2)c1 (some centres unmarked) [fluvalinate] | 2.9 | – |
| CC(C)OP(=O)(OC(C)C)SCc1ccccc1 [iprobenfos] | 3.37 | – |
| CC1(C)[C@H](C(=O)O[C@H](C#N)c2cccc(Oc3ccccc3)c2)[C@@H]1/C=C\C(=O)OC(C(F)(F)F)C(F)(F)F [acrinathrin] | 5.25 | – |
| N#Cc1c(Cl)c(Cl)c(Cl)c(C#N)c1Cl [TPN, chlorothalonil] | 2.92 | – |
